Measurements taken from patent US20260015436A1, “ANTIBODIES FOR CHELATED RADIONUCLIDES” (Hoffmann-La Roche Inc., priority 2018, published 2026).

Assays:
WSU-DLCL2 tumors = test: Protocol 162: CD20-PRIT efficacy; type: in vivo, SCID mice; settings: multiple injections of 20 μCi (PRIT); result in words
Method: The aim of this study was to show proof-of-concept of the treatment regimen developed for CEA-PRIT directed against an alternative target: cluster of differentiation 20 (CD20). The therapeutic efficacy was evaluated after 3 cycles of CD20-PRIT in mice bearing subcutaneous WSU-DLCL2 tumors. Comparisons were also made with: 1-step CD20-RIT, using BsAbs that were pre-incubated with ^212Pb-DOTAM before injection; with rituximab, a type I monoclonal antibody directed against CD20 and a reference in treatment of CD20+ diseases; and with GA101, a type II monoclonal antibody also directed against CD20.
Animals were treated according to the experimental schedule illustrated in FIG. 59. Solid WSU-DLCL2 xenografts were established in SCID mice aged 8 weeks on study day 0 by subcutaneous injection of 1.5×10^5 cells into the right flank. […]
Mice in groups H, I, and L were sacrificed and necropsied for biodistribution purposes 24 hours after their first and only injection of ^212Pb-DOTAM or ^212Pb-DOTAM-BsAb; groups J and K were sacrificed and necropsied 24 hours after their second and third ^212Pb-DOTAM injection, respectively. […] Collected samples were weighed and then measured for radioactivity using a 2470 WIZARD^2 automatic gamma counter (PerkinElmer), and the percent injected dose per gram of tissue (% ID/g) subsequently calculated, including corrections for decay and background. […]

BxPC3 tumors [1] = test: Protocol 95: TCMC saturation, CA amount and ^212Pb activity on tumor-associated radioactivity; type: in vivo, mice; settings: no clearing agent
Description: In this study, nine different clearing agents based on dextran-500 were compared in terms of inhibition of ^212Pb-DOTAM association to tumors. More specifically, the experiment assessed the impact on tumor-associated radioactivity from i) TCMC saturation, ii) clearing agent-to-antibody ratio, and iii) production/purification method. In addition, the tumor uptake was compared after injection of 10 or 30 μCi of ^212Pb-DOTAM, without pretargeting or CA, to assess whether radioactivity saturation of the tumor was achieved already at the lower dose.
PRIT-0165 (100 μg per 100 μL) was administered i.v., followed three days later by dextran-500-based clearing reagents (10-170 μg per 100 μL) with varying TCMC substitution (10-100%). Groups J and K received PBS instead of clearing agent. Two hours later, mice were injected i.v. with 100 μL of the respective ^212Pb-DOTAM solutions (10 or 30 μCi).
Mice were sacrificed and necropsied 24 hours after injection of ^212Pb-DOTAM. Blood, bladder, spleen, kidneys, liver, lung, muscle, tail, and tumors were collected, weighed and measured for radioactivity content, and the % ID/g subsequently calculated.

BxPC3 tumors [2] = test: Protocol 93a: efficacy and biodistribution of CEA-PRIT, BxPC3 model; type: in vivo, mice; settings: day 47; 30+30 μCi
Method: The bispecific antibodies were compared side-by-side in single- and double-cycle treatment regimens.
Groups A-G represent the treated mice that were followed up for assessment of efficacy, whereas groups H-L comprise mice that were sacrificed for biodistribution purposes 24 h after their last ^212Pb-DOTAM injection.
For protocol 93a, mice (age 7 weeks) were injected s.c. into the right flank with 5×10^6 BxPC3 cells (passage 33) in 100 μL RPMI/Matrigel. Twelve days after tumor cell injection, mice were sorted into experimental groups with an average tumor volume of 235 mm^3.
To minimize re-ingestion of radioactive urine/feces after treatment cycle 1, cages were changed 4 hours after ^212Pb-DOTAM administration, and then again at 24 h p.i. […]
The tumor development in the mice was followed through repeated calipering three times a week. […] The body weight of the animals was measured repeatedly in the same fashion. […]
Mice in groups H, J, and L were sacrificed and necropsied 24 hours after their first and only injection of ^212Pb-DOTAM; groups I and K were sacrificed and necropsied 24 hours after their second ^212Pb-DOTAM injection. […] Collected samples were weighed and measured for radioactivity, and the percent injected dose per gram of tissue (% ID/g) subsequently calculated, including corrections for decay and background.

NC(=O)CN1CCN(CC(N)=O)CCN(CC(N)=O)CCN(CC(N)=O)CC1.[212Pb+2] [^212Pb-DOTAM]
BW development (WSU-DLCL2 tumors): well tolerated | tumor accumulation (±SD, n=3) (BxPC3 tumors [1]; 10 μCi): 72.38±10.83 % ID/g | tumor accumulation (±SD, n=3) (BxPC3 tumors [1]; 30 μCi): 107.74±14.71 % ID/g | tumor growth inhibition (TGI) compared with PBS (BxPC3 tumors [2]): 15.8%
